Experimental data: patent publication US20100266577A1, “Method of Cancer Treatment with Antagonists of FAS Inhibitors” (priority 2007, published 2010)

system: BJAB cells; experiment: Fc:FasL-induced apoptosis with CD74-derived peptides; type: cell-based; settings: after 24 hours, compared to buffer- and unrelated peptide-treated cells
Description: A membrane proximal region of CD74-derived peptides disrupts CD74-Fas complexes. […] The CH-11 binding site was mapped to the membrane-proximal CRD3-domain of Fas.^10 We thus predicted that the membrane-proximal region of CD74 may be involved in the interaction with Fas. We designed four 20 amino acids long peptides with five amino acid overlaps spanning this region of CD74 (FIG. 16A).
The goal of this example was to design and identify peptides that compete with the Fas-CD74 complex in order to enhance Fas-mediated apoptosis. […] In order to better define competing peptides and peptides with apoptosis activity, we tested shorter peptides. We incubated seven amino acid length peptides (7mer 1, 7mer 2, and 7mer3) with BJAB cells and then stimulated apoptosis using recombinant Fas ligand (Fc:FasL).

Substance | Fas ligand-induced apoptosis (7mer peptides)
DKLTVTS [7mer 3] | significantly enhanced levels of Fas ligand-induced apoptosis
GRLDKLT [7mer 2] | significantly enhanced levels of Fas ligand-induced apoptosis
QQQGRLD [7mer 1] | significantly enhanced levels of Fas ligand-induced apoptosis
